In patent EP3046573B1, “AMYLIN ANALOGUES” (Zealand Pharma A/S, priority 2013, dated 2015):
Numbered stars: 1 amine (or outer) side, 2 acyl side, 3 side chain; on linkers, the order of the positions; unused ones are H or OH. Bridge positions count the residues as written; N and C are the ends. Square brackets hold non-standard residues; d marks the D form. Peptide text beside a SMILES is read from it. * marks the point of attachment. C20 diacid = O=C(O)CCCCCCCCCCCCCCCCCCC(=O)*; γGlu = O=C(O)[C@H](CCC(=O)[*:2])N[*:1]; NMeI = CC[C@H](C)[C@H](NC)C(=O)O; Sar = CNCC(=O)O

Key:
[1] = Solubility assessment (turbidity absorbance at 325 nm); format: physicochemical; conditions: stock 2 mg/ml diluted 1:1, ambient temperature (typically 25°C), n=1; for Solubility, Acetate buffer pH 4: 100 mM acetate buffer pH 4.0; for Solubility, Acetate buffer pH 5: 100 mM acetate buffer pH 5.0; for Solubility, Histidine buffer pH 6: 100 mM histidine buffer pH 6.0; for Solubility, Histidine buffer pH 7: 100 mM histidine buffer pH 7.0; for Solubility, Phosphate buffer pH 6: 100 mM phosphate buffer pH 6.0; for Solubility, Phosphate buffer pH 7: 100 mM phosphate buffer pH 7.0; for Solubility, Phosphate buffer pH 7.5: 100 mM phosphate buffer pH7.5
Method in brief: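 Stock 2 mg/ml peptide, H2O/HCl pH 2.5; 1:1 into 100 mM buffers: acetate pH 4.0/5.0, His pH 6.0/7.0, phosphate pH 6.0/7.0/7.5. A280 + A325, ~25°C, n=1. Soluble ≥ 1 mg/ml if A325 ≤ 0.02.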

[2] = target: T1, human calcitonin receptor (hCTR2) (Homo sapiens, UniProt P30988); assay: hCTR2 assay: induction of cAMP (AlphaScreen cAMP Assay kit) in COS7 cells expressing hCTR2; format: cell-based; conditions: cAMP induction in COS7 cells expressing hCTR2; average of a minimum of 3 determinations; read-out: hCTR2 EC50
T1 construct: expressed in transfected cells
T1 sequence (P30988 25-474): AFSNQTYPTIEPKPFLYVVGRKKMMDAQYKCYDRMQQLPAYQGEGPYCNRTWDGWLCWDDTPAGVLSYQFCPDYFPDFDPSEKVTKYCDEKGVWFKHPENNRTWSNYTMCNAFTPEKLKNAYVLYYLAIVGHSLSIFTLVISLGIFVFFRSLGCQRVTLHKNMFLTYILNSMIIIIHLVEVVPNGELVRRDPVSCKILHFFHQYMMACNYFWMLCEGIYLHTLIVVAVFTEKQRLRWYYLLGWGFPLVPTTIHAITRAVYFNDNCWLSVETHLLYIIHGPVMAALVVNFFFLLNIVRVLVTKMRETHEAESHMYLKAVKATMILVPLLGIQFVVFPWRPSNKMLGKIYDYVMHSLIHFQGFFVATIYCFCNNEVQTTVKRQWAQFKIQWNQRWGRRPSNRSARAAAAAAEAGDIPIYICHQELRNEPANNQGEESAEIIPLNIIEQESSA
Method in brief: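 COS7 stable hCTR2 clone (RAMP-free); peptide dose-response 15 min 37° C in Tyrode pH 7.4 + 100 µM IBMX + 0.1% casein; lysis 10 min RT; AlphaScreen cAMP; 4PL fit.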

Compound	Solubility, Acetate buffer pH 4 [1]	Solubility, Acetate buffer pH 5 [1]	Solubility, Histidine buffer pH 6 [1]	Solubility, Histidine buffer pH 7 [1]	Solubility, Phosphate buffer pH 6 [1]	Solubility, Phosphate buffer pH 7 [1]	Solubility, Phosphate buffer pH 7.5 [1]	EC50 [2] [nM]
CC[C@H](C)[C@@H](C(=O)N[C@@H](CC(C)C)C(=O)N[C@@H](CO)C(=O)N[C@@H](CO)C(=O)N[C@H](C(=O)N[C@@H](CC(N)=O)C(=O)N[C@H](C(=O)NCC(=O)N[C@@H](CO)C(=O)N[C@@H](Cc1c[nH]cn1)C(=O)N[C@H](C(=O)N[C@@H](Cc1ccc(O)cc1)C(N)=O)[C@@H](C)O)C(C)C)[C@@H](C)O)N(C)C(=O)CN(C)C(=O)[C@H](Cc1ccccc1)NC(=O)[C@H](CC(N)=O)NC(=O)[C@H](CC(N)=O)NC(=O)[C@H](CO)NC(=O)[C@H](CO)NC(=O)[C@H](Cc1c[nH]cn1)NC(=O)[C@H](Cc1c[nH]cn1)NC(=O)[C@H](CC(C)C)NC(=O)[C@H](Cc1ccccc1)NC(=O)[C@H](CCC(=O)O)NC(=O)[C@H](C)NC(=O)[C@H](CC(C)C)NC(=O)[C@H](CCCNC(=N)N)NC(=O)[C@H](CCC(N)=O)NC(=O)[C@@H](NC(=O)[C@H](C)NC(=O)[C@@H]1CSSC[C@H](NC(=O)[C@H](CCCCN)NC(=O)CC[C@H](NC(=O)CCCCCCCCCCCCCCCCCCC(=O)O)C(=O)O)C(=O)N[C@@H](CC(N)=O)C(=O)N[C@@H]([C@@H](C)O)C(=O)N[C@@H](C)C(=O)N[C@@H]([C@@H](C)O)C(=O)N1)[C@@H](C)O [Compound 4, [19CD]-isoGlu-KC()NTATC()ATQRLAEFLHHSSNNF-Gly(Me)-Ile(Me)-LSSTNVGSHTY-NH2] ({C20 diacid-γGlu}-KCNTATCATQRLAEFLHHSSNNF[Sar][NMeI]LSSTNVGSHTY-NH2; disulfide 2-7)	II (II indicates solubility ≤ 1 mg/ml)	SS (SS indicates solubility ≥ 1mg/ml)	II (II indicates solubility ≤ 1 mg/ml)	II (II indicates solubility ≤ 1 mg/ml)	II (II indicates solubility ≤ 1 mg/ml)	II (II indicates solubility ≤ 1 mg/ml)	II (II indicates solubility ≤ 1 mg/ml)	1.3
CC[C@H](C)[C@@H](C(=O)N[C@@H](CC(C)C)C(=O)N[C@@H](CO)C(=O)N[C@@H](CO)C(=O)N[C@H](C(=O)N[C@@H](CC(=O)O)C(=O)N[C@H](C(=O)NCC(=O)N[C@@H](CO)C(=O)N[C@@H](CCC(=O)O)C(=O)N[C@H](C(=O)N1CCC[C@H]1C(N)=O)[C@@H](C)O)C(C)C)[C@@H](C)O)N(C)C(=O)CN(C)C(=O)[C@H](Cc1ccccc1)NC(=O)[C@H](CO)NC(=O)[C@H](CO)NC(=O)[C@H](CO)NC(=O)[C@H](CO)NC(=O)[C@H](CCCNC(=N)N)NC(=O)[C@H](Cc1c[nH]cn1)NC(=O)[C@H](CC(C)C)NC(=O)[C@H](Cc1ccccc1)NC(=O)[C@H](CCC(=O)O)NC(=O)[C@H](C)NC(=O)[C@H](CC(C)C)NC(=O)[C@H](CCCNC(=N)N)NC(=O)[C@H](CCC(N)=O)NC(=O)[C@@H](NC(=O)[C@H](C)NC(=O)[C@@H]1CSSC[C@H](NC(=O)[C@H](CCCNC(=N)N)NC(=O)CC[C@H](NC(=O)CCCCCCCCCCCCCCCCCCC(=O)O)C(=O)O)C(=O)N[C@@H](CC(N)=O)C(=O)N[C@@H]([C@@H](C)O)C(=O)N[C@@H](C)C(=O)N[C@@H]([C@@H](C)O)C(=O)N1)[C@@H](C)O [Compound 75, [19CD]-isoGlu-RC()NTATC()ATQRLAEFLHRSSSSF-Gly(Me)-Ile(Me)-LSSTDVGSETP-NH2] ({C20 diacid-γGlu}-RCNTATCATQRLAEFLHRSSSSF[Sar][NMeI]LSSTDVGSETP-NH2; disulfide 2-7)	SS (SS indicates solubility ≥ 1mg/ml)	II (II indicates solubility ≤ 1 mg/ml)	II (II indicates solubility ≤ 1 mg/ml)	SS (SS indicates solubility ≥ 1mg/ml)	SS (SS indicates solubility ≥ 1mg/ml)	SS (SS indicates solubility ≥ 1mg/ml)	SS (SS indicates solubility ≥ 1mg/ml)	0.11
CC[C@H](C)[C@@H](C(=O)N[C@@H](CC(C)C)C(=O)N[C@@H](CO)C(=O)N[C@@H](CO)C(=O)N[C@H](C(=O)N[C@@H](CC(N)=O)C(=O)N[C@H](C(=O)NCC(=O)N[C@@H](CO)C(=O)N[C@@H](CC(N)=O)C(=O)N[C@H](C(=O)N1CCC[C@H]1C(N)=O)[C@@H](C)O)C(C)C)[C@@H](C)O)N(C)C(=O)[C@H](C)NC(=O)CN(C)C(=O)[C@H](Cc1ccccc1)NC(=O)[C@H](CC(N)=O)NC(=O)[C@H](CO)NC(=O)[C@H](CO)NC(=O)[C@H](Cc1c[nH]cn1)NC(=O)[C@H](Cc1c[nH]cn1)NC(=O)[C@H](CC(C)C)NC(=O)[C@H](Cc1ccccc1)NC(=O)[C@H](CCC(=O)O)NC(=O)[C@H](C)NC(=O)[C@H](CC(C)C)NC(=O)[C@H](CCCNC(=N)N)NC(=O)[C@H](CCC(N)=O)NC(=O)[C@@H](NC(=O)[C@H](C)NC(=O)[C@@H]1CSSC[C@H](NC(=O)[C@H](CCCNC(=N)N)NC(=O)CC[C@H](NC(=O)CCCCCCCCCCCCCCCCCCC(=O)O)C(=O)O)C(=O)N[C@@H](CC(N)=O)C(=O)N[C@@H]([C@@H](C)O)C(=O)N[C@@H](C)C(=O)N[C@@H]([C@@H](C)O)C(=O)N1)[C@@H](C)O [Compound 44, [19CD]-isoGlu-RC()NTATC()ATQRLAEFLHHSSNF-Gly(Me)-A-Ile(Me)-LSSTNVGSNTP-NH2] ({C20 diacid-γGlu}-RCNTATCATQRLAEFLHHSSNF[Sar]A[NMeI]LSSTNVGSNTP-NH2; disulfide 2-7)	SS (SS indicates solubility ≥ 1mg/ml)	II (II indicates solubility ≤ 1 mg/ml)	II (II indicates solubility ≤ 1 mg/ml)	SS (SS indicates solubility ≥ 1mg/ml)	SS (SS indicates solubility ≥ 1mg/ml)	SS (SS indicates solubility ≥ 1mg/ml)	SS (SS indicates solubility ≥ 1mg/ml)	0.15
CC[C@H](C)[C@@H](C(=O)N[C@@H](CC(C)C)C(=O)N[C@@H](CO)C(=O)N[C@@H](CO)C(=O)N[C@H](C(=O)N[C@@H](CCC(=O)O)C(=O)N[C@H](C(=O)NCC(=O)N[C@@H](CO)C(=O)N[C@@H](CC(=O)O)C(=O)N[C@H](C(=O)N1CCC[C@H]1C(N)=O)[C@@H](C)O)C(C)C)[C@@H](C)O)N(C)C(=O)CN(C)C(=O)[C@H](Cc1ccccc1)NC(=O)[C@H](CO)NC(=O)[C@H](CO)NC(=O)[C@H](CCCNC(=N)N)NC(=O)[C@H](Cc1c[nH]cn1)NC(=O)[C@H](CC(C)C)NC(=O)[C@H](Cc1ccccc1)NC(=O)[C@H](CCC(=O)O)NC(=O)[C@H](C)NC(=O)[C@H](CC(C)C)NC(=O)[C@H](CCCNC(=N)N)NC(=O)[C@H](CCC(N)=O)NC(=O)[C@@H](NC(=O)[C@H](C)NC(=O)[C@@H]1CSSC[C@H](NC(=O)[C@H](CCCNC(=N)N)NC(=O)CC[C@H](NC(=O)CCCCCCCCCCCCCCCCCCC(=O)O)C(=O)O)C(=O)N[C@@H](CC(N)=O)C(=O)N[C@@H]([C@@H](C)O)C(=O)N[C@@H](C)C(=O)N[C@@H]([C@@H](C)O)C(=O)N1)[C@@H](C)O [Compound 79, [19CD]-isoGlu-RC()NTATC()ATQRLAEFLHRSSF-Gly(Me)-Ile(Me)-LSSTEVGSDTP-NH2] ({C20 diacid-γGlu}-RCNTATCATQRLAEFLHRSSF[Sar][NMeI]LSSTEVGSDTP-NH2; disulfide 2-7)	SS (SS indicates solubility ≥ 1mg/ml)	SS (SS indicates solubility ≥ 1mg/ml)	SS (SS indicates solubility ≥ 1mg/ml)	SS (SS indicates solubility ≥ 1mg/ml)	SS (SS indicates solubility ≥ 1mg/ml)	SS (SS indicates solubility ≥ 1mg/ml)	SS (SS indicates solubility ≥ 1mg/ml)	0.1
